From US20080064071A1, “Zwitterionic detergents for the storage and use of DNA polymerases” (priority 2006, published 2008)
Values joined by “and” are separate entries in the source; they are usually repeats but may differ in a detail not shown here. Identical values can stand only once.

Columns and labels:
[1] = tested on: Pfu fusion DNA polymerase; experiment: SYBR Green QPCR with Pfu fusion DNA polymerase; assay type: biochemical, Pyrococcus furiosus; details: for Effective range, concentration of each detergent in combination, SYBR Green QPCR: combination CHAPS (0.1%) + Anz. 3-10 (0.02-0.15%); for Optimal range, concentration of each detergent in combination, SYBR Green QPCR: combination CHAPS (0.1%) + Anz. 3-10 (0.05-0.15%); for Effective range, Detergent 1 (single detergent), SYBR Green QPCR / Optimal range, Detergent 1 (single detergent), SYBR Green QPCR: detergent alone; for QPCR amplification efficiency, total fluorescence and Ct values versus 0.1% Triton X100 (FIG. 7) / amplification efficiency, total fluorescence and Ct values (FIG. 8): 0.5% detergent; for amplification efficiency, total fluorescence and Ct values (FIG. 8): aldolase and GDH gene targets
Experimental: QPCR reactions contained DNA or cDNA template, varying amounts of primer (see Table 3 below), 300 uM each dNTP, 4 ng/ul exo Pfu fusion, 6 ng/ul hot start IgG, 0.4ng/ul single-stranded DNA-binding protein, 1× Pfu fusion DF-buffer II (pH 9), 4% DMSO, and 8% glycerol. QPCR reactions were supplemented with 0.1% Triton X100 or zwitterionic detergent, and with 0.5× SYBR Green (Molecular Probes S-7567). Reactions were cycled on the MX3000P Real-Time PCR System using the following conditions: (1 cycle) 95° C. 5 min; (40 cycles) 95° C. 10 sec, 60° C. 30 sec.

[2] = tested on: Pfu and Pfu fusion DNA polymerase; experiment: Endpoint PCR, enhancing detergents and detergent combinations (Table 2); assay type: biochemical, Pyrococcus furiosus; details: for Effective range, Detergent 1 (single detergent) / Optimal range, Detergent 1 (single detergent): endpoint PCR, detergent alone
[3] = tested on: Pfu fusion DNA polymerase; experiment: Endpoint PCR with Pfu fusion DNA polymerase, detergent/surfactant added to detergent-free PCR buffer; assay type: biochemical, Pyrococcus furiosus; details: for PCR amplification with detergent alone (FIG. 2) / PCR product with detergent alone (FIG. 3): 0.05% of the individual detergent; for detergent concentration at which amplifications generated product yields (FIG. 1): individual detergent in fusion PCR buffer, genomic DNA targets, no product in absence of detergent
Pfu DNA polymerase = molecular target: T1, Pfu DNA polymerase (Pyrococcus furiosus, UniProt P61875); experiment: Endpoint PCR with Pfu DNA polymerase, detergent/surfactant added to detergent-free PCR buffer; assay type: biochemical; details: for product yields on addition of zwitterionic detergent to PCR buffer (FIG. 5): versus buffer lacking detergent, which failed to generate product; for effectiveness relative to CHAPS and Anzergent 3-10 (FIG. 5): CHAPSO 0.05-0.2%, Anzergent 3-12 0.1-0.2%, in PCR buffer
T1 sequence (P61875 1-775): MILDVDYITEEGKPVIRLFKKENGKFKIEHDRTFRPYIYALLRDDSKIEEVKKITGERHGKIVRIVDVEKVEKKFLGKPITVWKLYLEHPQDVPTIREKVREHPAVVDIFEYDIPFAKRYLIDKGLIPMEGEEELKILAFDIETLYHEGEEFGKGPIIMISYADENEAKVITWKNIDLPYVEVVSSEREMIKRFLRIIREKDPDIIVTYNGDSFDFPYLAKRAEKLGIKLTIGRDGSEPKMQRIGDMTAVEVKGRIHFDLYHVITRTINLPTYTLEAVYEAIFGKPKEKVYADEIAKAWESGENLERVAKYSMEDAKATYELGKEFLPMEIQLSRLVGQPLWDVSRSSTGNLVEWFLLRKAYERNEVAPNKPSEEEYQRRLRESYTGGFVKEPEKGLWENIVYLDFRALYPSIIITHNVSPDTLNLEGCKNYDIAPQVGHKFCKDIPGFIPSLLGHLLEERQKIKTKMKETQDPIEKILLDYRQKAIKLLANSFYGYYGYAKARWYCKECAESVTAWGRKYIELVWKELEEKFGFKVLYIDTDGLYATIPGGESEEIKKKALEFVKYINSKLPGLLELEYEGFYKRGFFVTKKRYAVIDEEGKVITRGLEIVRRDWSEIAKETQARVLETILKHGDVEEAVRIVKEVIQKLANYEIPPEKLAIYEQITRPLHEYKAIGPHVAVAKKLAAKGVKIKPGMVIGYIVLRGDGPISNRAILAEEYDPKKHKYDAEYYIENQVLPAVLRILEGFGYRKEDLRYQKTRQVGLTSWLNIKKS
Experimental: Pfu (exo+ and exo−) fusion DNA polymerase (e.g., as described in U.S. patent application Ser. No.: 11/488,535, filed Jul. 17, 2006, and herein incorporated by reference in its entirety), cPfu DNA polymerase (Stratagene catalog #600154), and PEF were purified using standard production protocols (no detergent present), except that non-ionic detergents were omitted from the final storage buffers. Enzymes were stored at −20° C. in 50 mM Tris-HCl (pH 8.2), 0.1 mM EDTA, 1 mM DTT, and 50% glycerol. DNA polymerase storage buffers were additionally supplemented with one or more zwitterionic detergents, in percentages (v/v) ranging from 0.05% to 0.5%.
PCR reaction buffers were prepared without non-ionic detergents (“DF buffer”, detergent-free buffer). For example, 1× cPfu DF-buffer contains 10 mM KCl, 10 mM (NH4)2SO4, 20 mM Tris HCl (pH 8.8), 2 mM MgSO4, and 100 ug/ml BSA. Detergent-free versions of Pfu fusion buffers were also prepared, and consisted of: 40 mM Tris-SO4 (pH 10), 15 mM K2SO4, 8 mM (NH4)2SO4, 2 mM MgSO4 (1× Pfu fusion DF-buffer I) or 30 mM Tris-SO4 (pH 10), 40 mM K2SO4, 1.5 mM (NH4)2SO4, 2 mM MgSO4 (1× Pfu fusion DF-buffer II).
PCR reaction buffers were supplemented with 0.1% Triton X100 (non-ionic detergent) or with one or more zwitterionic detergents or non-detergent surfactants. For example, zwitterionic detergents CHAPS, CHAPSO, 3-10, and 3-12 were obtained from AnaTrace, Inc. (Maumee, Ohio) and added to DF-buffers in percentages (v/v) ranging from 0.05% to 0.5%. The non-detergent surfactant, Surfynol 465, was purchased from Air Products and used in a similar fashion.
For the 0.9 kb and 6 kb systems, PCR reactions (50 ul) were conducted with 40 ng cPfu DNA polymerase in IX cPfu DF-buffer or with 28 ng or 224 ng Pfu fusion DNA polymerase in 1× Pfu fusion DF-buffer I or DF-buffer II, respectively. PCR reactions also contained 2 U/50 ul Pyrococcus furiosus dUTPase (PEF), 100 ng of human genomic DNA, 250 uM each dNTP, and 100 ng of each primer. For the 9 kb system, PCR reactions (50 ul) consisted of 80 ng Pfu, 1.5× cPfu DF-buffer, 2U Pyrococcus furiosus dUTPase (PEF), 200 ng of human genomic DNA, 500 uM each dNTP, and 200 ng of each primer. PCR reaction buffers were supplemented with 0.1% Triton X100 or with zwitterionic detergent(s).

[4] = tested on: Pfu fusion DNA polymerase; experiment: Accelerated stability study of Pfu fusion DNA polymerase in storage buffer, residual activity by 0.9 kb PCR; assay type: biochemical, Pyrococcus furiosus; details: detergent in storage buffer
Experimental: Accelerated stability studies were performed to illustrate the stabilizing effects of zwitterionic detergents. Pfu fusion DNA polymerase was purified in the absence of detergents and then diluted to 28 ng/ul in storage buffer lacking detergent or storage buffers containing either conventional non-ionic detergent (0.1% Igepal/0.1% Triton X100) or various zwitterionic detergents. Protein samples were stored at −20° C. or were heated at 95° C. for varying lengths of time. Residual activity was assayed by amplifying a 0.9 kb genomic target in PCR in fusion DF-buffer supplemented with either 0.1% Triton X100 or 0.1% CHAPSO/0.1% Anzergent 3-12.

Taq DNA polymerase = Taq DNA polymerase (Thermus aquaticus, UniProt P19821); details: disclosed in U.S. Pat. No. 6,127,155; cited from earlier work
[5] = combination CHAPS (0.05, 0.1%) + Anz. 3-10 (0.1-0.5%)
[6] = combination CHAPSO (0.1%) + Anz. 3-10 (0.05-0.4%)
[7] = combination CHAPSO (0.1%) + Anz. 3-10 (0.05-0.5%)
[8] = combination CHAPS (0.05%) + Anz. 3-12 (0.05-0.3%)
[9] = combination CHAPS (0.05%) + Anz. 3-12 (0.05-0.5%)
[10] = combination CHAPS (0.1%) + Anz. 3-12 (0.05-0.5%)
[11] = combination CHAPS (0.05-0.5%) + CHAPSO (0.05-0.3%)

Sequence of Taq DNA polymerase (P19821 whole entry): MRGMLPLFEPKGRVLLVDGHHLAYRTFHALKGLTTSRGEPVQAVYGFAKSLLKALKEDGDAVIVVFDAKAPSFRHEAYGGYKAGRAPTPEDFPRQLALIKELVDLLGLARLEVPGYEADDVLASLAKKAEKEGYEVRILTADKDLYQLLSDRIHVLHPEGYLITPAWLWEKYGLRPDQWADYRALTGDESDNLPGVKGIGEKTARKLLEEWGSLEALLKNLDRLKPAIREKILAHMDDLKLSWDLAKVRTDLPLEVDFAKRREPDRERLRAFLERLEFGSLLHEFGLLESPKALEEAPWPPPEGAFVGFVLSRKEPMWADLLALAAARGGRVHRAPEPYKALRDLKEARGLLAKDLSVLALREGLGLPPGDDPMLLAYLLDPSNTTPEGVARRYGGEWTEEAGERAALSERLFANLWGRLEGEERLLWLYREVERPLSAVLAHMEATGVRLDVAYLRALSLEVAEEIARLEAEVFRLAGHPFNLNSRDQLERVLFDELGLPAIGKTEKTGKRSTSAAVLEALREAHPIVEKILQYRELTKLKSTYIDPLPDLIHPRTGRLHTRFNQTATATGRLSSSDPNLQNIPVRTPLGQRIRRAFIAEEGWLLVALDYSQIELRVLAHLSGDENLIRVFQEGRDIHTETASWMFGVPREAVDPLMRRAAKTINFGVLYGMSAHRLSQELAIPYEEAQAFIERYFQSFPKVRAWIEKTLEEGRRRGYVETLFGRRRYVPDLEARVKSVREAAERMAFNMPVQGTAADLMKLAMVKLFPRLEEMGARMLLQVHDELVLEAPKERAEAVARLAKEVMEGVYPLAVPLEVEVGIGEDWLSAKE

Compound	Effective range, concentration of each detergent in combination, SYBR Green QPCR [1]	Optimal range, concentration of each detergent in combination, SYBR Green QPCR [1]	Effective range, Detergent 1 (single detergent), SYBR Green QPCR [1]	Optimal range, Detergent 1 (single detergent), SYBR Green QPCR [1]	Optimal range, concentration of each detergent in combination [2, 6]	Effective range, concentration of each detergent in combination [2, 7]	Effective range, Detergent 1 (single detergent) [2]	Optimal range, Detergent 1 (single detergent) [2]	PCR amplification with detergent alone (FIG. 2) [3]	detergent concentration at which amplifications generated product yields (FIG. 1) [3]	product yields on addition of zwitterionic detergent to PCR buffer (FIG. 5) (Pfu DNA polymerase)	Optimal range, concentration of each detergent in combination [2, 8]	Effective range, concentration of each detergent in combination [2, 9]	Effective range, concentration of each detergent in combination [2, 10]	Optimal range, concentration of each detergent in combination [2, 10]	PCR product with detergent alone (FIG. 3) [3]	effectiveness relative to CHAPS and Anzergent 3-10 (FIG. 5) (Pfu DNA polymerase)	effect on stability of Pfu fusion DNA polymerase (FIG. 6) [4]	QPCR amplification efficiency, total fluorescence and Ct values versus 0.1% Triton X100 (FIG. 7) [1]	amplification efficiency, total fluorescence and Ct values (FIG. 8) [1]	other results
CCCCCCCCCC[N+](C)(C)CCCS(=O)(=O)[O-] [Anzergent 3-10, n-Decyl-N,N-dimethyl-3-ammonio-1-propanesulfonate]	Anz. 3-10 (0.02-0.15%)	Anz. 3-10 (0.05-0.15%)	Anz. 3-10 (0.1-0.3%)	Anz. 3-10 (0.2%)	Anz. 3-10 (0.05-0.4%)	Anz. 3-10 (0.05-0.5%)	Anz. 3-10 (0.4-0.8%)	Anz. 3-10 (0.4-0.8%)	little amplification	0.4-0.8%	dramatically improved										Effective range, concentration of each detergent in combination [2, 5]: Anz. 3-10 (0.1-0.5%); Optimal range, concentration of each detergent in combination [2, 5]: Anz. 3-10 (0.1-0.5%); detergent concentration with favorable result on PCR amplification (FIG. 2) ([3]; individual detergent added to the reaction): 0.4% and 0.8%
CCCCCCCCCCCC[N+](C)(C)CCCS(=O)(=O)[O-] [Anzergent 3-12, n-Dodecyl-N,N-dimethyl-3-ammonio-1-propanesulfonate]			Anz. 3-12 (0.1-0.2%)	Anz. 3-12 (0.15-0.2%)			Anz. 3-12 (0.1-0.4%)	Anz. 3-12 (0.1-0.2%)		0.1-0.2%	dramatically improved	Anz. 3-12 (0.05-0.3%)	Anz. 3-12 (0.05-0.5%)	Anz. 3-12 (0.05-0.5%)	Anz. 3-12 (0.05-0.5%)	did not show observable levels of PCR product	somewhat more effective	enhance the stability			Effective range, concentration of each detergent in combination ([2]; combination CHAPSO (0.05%, 0.1%) + Anz. 3-12 (0.05-0.5%)): Anz. 3-12 (0.05-0.5%)
C[C@H](CCC(=O)NCCC[N+](C)(C)CC(O)CS(=O)(=O)[O-])[C@H]1CC[C@H]2[C@@H]3[C@H](O)C[C@@H]4C[C@H](O)CC[C@]4(C)[C@H]3C[C@H](O)[C@]12C (some centres unmarked) [CHAPSO]			CHAPSO (0.1-0.75%)	CHAPSO (0.2-0.5%)	CHAPSO (0.1%)	CHAPSO (0.1%)	CHAPSO (0.1-0.8%)	CHAPSO (0.15-0.35%)	little amplification	0.15-0.3%	dramatically improved					did not show observable levels of PCR product	somewhat more effective	enhance the stability	comparable	favorable	Effective range, concentration of each detergent in combination [2, 11]: CHAPSO (0.05-0.3%)
C[C@H](CCC(=O)NCCC[N+](C)(C)CCCS(=O)(=O)[O-])[C@H]1CC[C@H]2[C@@H]3[C@H](O)C[C@@H]4C[C@H](O)CC[C@]4(C)[C@H]3C[C@H](O)[C@]12C [CHAPS]	CHAPS (0.1%)	CHAPS (0.1%)	CHAPS (0.1-0.5%)	CHAPS (0.5%)			CHAPS (0.2-0.8%)	CHAPS (0.2-0.4%)			dramatically improved	CHAPS (0.05%)	CHAPS (0.05%)	CHAPS (0.1%)	CHAPS (0.1%)			enhance the stability	comparable	favorable	Effective range, concentration of each detergent in combination [2, 11]: CHAPS (0.05-0.5%)
NP-40																					effect on Taq DNA polymerase (Taq DNA polymerase): stabilize
